In patent US8404738B2 (Hoffmann-La Roche Inc., priority 2011, dated 2013):

Key:
HDAC6 = target: T1, HDAC6 (Homo sapiens, UniProt Q9UBN7); assay: Tubulin acetylation cytoblot assay (A549 cells); format: cell-based; conditions: 17-18 h incubation, tubulin acetylation as marker of HDAC6 inhibition, read-out: Tub-Ac EC50
T1 construct: endogenous in cells; host or cells: A549 cells
T1 sequence (Q9UBN7 1-1215): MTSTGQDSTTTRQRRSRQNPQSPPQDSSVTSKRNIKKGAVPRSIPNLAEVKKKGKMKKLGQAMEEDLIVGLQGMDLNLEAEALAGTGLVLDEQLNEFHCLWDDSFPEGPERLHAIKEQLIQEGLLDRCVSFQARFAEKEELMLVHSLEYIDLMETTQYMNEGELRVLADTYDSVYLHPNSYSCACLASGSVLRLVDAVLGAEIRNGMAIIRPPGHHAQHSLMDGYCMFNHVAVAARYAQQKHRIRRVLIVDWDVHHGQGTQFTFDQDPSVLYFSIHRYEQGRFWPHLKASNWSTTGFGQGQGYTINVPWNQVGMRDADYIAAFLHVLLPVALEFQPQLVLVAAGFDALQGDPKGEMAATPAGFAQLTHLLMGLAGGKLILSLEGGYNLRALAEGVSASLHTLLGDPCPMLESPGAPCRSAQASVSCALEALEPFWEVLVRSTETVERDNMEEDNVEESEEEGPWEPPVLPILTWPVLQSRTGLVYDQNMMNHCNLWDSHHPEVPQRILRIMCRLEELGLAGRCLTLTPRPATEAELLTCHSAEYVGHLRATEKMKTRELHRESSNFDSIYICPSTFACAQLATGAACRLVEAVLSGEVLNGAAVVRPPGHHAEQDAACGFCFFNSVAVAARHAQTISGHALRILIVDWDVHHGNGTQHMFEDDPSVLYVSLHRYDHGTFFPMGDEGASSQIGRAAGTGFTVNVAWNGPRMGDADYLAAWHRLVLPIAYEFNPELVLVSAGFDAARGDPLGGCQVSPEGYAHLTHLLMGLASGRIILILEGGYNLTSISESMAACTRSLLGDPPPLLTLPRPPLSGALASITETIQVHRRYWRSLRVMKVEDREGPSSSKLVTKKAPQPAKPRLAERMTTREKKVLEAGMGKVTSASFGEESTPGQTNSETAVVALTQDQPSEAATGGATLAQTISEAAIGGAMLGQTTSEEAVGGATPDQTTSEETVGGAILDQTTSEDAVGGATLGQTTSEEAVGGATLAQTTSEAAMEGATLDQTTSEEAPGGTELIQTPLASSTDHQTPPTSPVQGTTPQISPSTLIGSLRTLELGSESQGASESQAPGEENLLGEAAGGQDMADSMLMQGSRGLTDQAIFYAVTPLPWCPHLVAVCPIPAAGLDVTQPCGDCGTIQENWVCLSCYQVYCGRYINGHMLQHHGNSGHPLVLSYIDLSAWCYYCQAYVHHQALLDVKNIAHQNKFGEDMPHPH
Description: Tubulin Acetylation Induction by Novel Compounds: Tubulin Acetylation Cytoblot Assay.
Tubulin acetylation is a PD marker for HDAC6 inhibition. The extent of tubulin acetylation represents the inhibitory effect on HDAC6.
Novel compounds were tested for their ability to inhibit HDAC6 using a cell-based deacetylation assay. Tubulin acetylation was detected by the anti-acetylated tubulin antibody (Sigma) and horse radish peroxidase (HRP) conjugated secondary antibody (KangChen Bio. Tech.). […] 20 μl of diluted compound solution was transferred to the cell culture plate and incubated for 17-18 h. After medium removal and fixation by formaldehyde (3.7% paraformaldehyde in TBS), the cells in the plates were treated with 180 μl of −20° C. MeOH and incubated for 5 min at rt. The cell lysis was incubated with 75 μl of primary anti-acetylated tubulin antibody and secondary HRP conjugated antibody solution (1:750 anti-acetylated tubulin, 1:750 HRP conjugated anti-mouse IgG in antibody dilution buffer not containing sodium azide) for 4 h at 4° C. By adding the HRP substrate, enhanced chemiluminescence (ECL) reagent (GE Healthcare) generated luminescence corresponding to the level of tubulin acetylation. So that 75 μl of ECL was added into the wells and the luminescence from each well was immediately quantified by the plate reader. Based on the luminescence reading, the Tub-Ac EC50s against HDAC6 of the tested compounds were calculated by plotting the curve with XLfit4.0 software. Inhibition %=[signal(sample)−Mean(bottom)]×100/[Mean(top)−Mean(bottom)]

recombinant human HDAC8 = target: T2, recombinant human HDAC8 (Homo sapiens, UniProt Q9BY41); assay: HDAC8 inhibition: recombinant HDAC8 fluorometric assay; format: biochemical; conditions: recombinant human HDAC8, substrate Ac-Arg-His-Lys-Lys(ε-acetyl)-AMC; read-out: HDAC8 IC50
T2 construct: made in house; host or cells: insect cells
T2 sequence (Q9BY41 1-377): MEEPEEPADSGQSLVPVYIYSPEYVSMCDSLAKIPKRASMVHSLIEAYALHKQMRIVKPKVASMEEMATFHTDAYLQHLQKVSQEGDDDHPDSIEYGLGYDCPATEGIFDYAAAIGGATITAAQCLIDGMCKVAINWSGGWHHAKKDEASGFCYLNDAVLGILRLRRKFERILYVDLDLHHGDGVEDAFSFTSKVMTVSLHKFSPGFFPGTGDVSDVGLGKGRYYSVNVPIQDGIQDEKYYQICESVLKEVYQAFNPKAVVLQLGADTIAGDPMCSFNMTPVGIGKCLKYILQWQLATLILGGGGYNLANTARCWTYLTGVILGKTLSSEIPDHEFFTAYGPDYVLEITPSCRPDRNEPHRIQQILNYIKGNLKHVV
Description: HDAC8 Inhibition by Novel Compounds: Recombinant HDAC8 Fluorometric Assay.
A competitive inhibitory assay of HDAC8 was carried out by using recombinant HDAC8 and a commercial substrate Ac-Arg-His-Lys-Lys(ε-acetyl)-AMC.
Compounds were tested for their ability to inhibit histone deacetylase 8 using an in vitro deacetylation assay. The enzyme source for this assay was recombinant human HDAC8 protein expressed and purified from insect cells. […] The substrate consisted of a commercial product Ac-Arg-His-Lys-Lys(ε-acetyl)-AMC (substrate is available from Cayman Chemical). […] 1 μl of half-log diluted compounds were added into wells and incubated for 15 min at rt. After that, 8 μl of substrate solution was transferred to the wells and incubated for 30 min at rt. After deacetylation of the substrate by incubation with HDAC8 enzyme, subsequent exposure to a developing reagent produced a fluorophore that was directly proportional to the level of deacetylation. […] The fluorescence signal was measured by a FlexStation3 plate reader (excitation wave length 340-360 nm; emission wave length 440-465 nm). The HDAC8 IC50 was calculated after normalization and curve fitting using XLfit4.0 software. Inhibition %=[Mean(top)−signal(sample)]×100/[Mean(top)−Mean(bottom)].

[1] = tested on: p21 promoter-luciferase construct; assay: p21 reporter gene induction (HeLa cells, p21 promoter-luciferase construct); conditions: for p21 RP3: relative gene level of p21 compared to MS275 at 3 μM; for p21 RP10: relative level of p21 compared to MS275 at 10 μM; for p21 RP30: relative level of p21 compared to MS275 at 30 μM;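 on all read-outs here: transfected HeLa cells exposed to compound for 15 h, luciferase luminescence read from lysates, p21 promoter lacks p53 site, proxy for cellular HDAC1/2/3 inhibition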

SMILES | EC50 (HDAC6) [nM] | IC50 (recombinant human HDAC8) [nM] | p21 RP3 [1] | p21 RP10 [1] | p21 RP30 [1]
O=C(NO)c1ccc(NC2CCN(c3ccc(F)cc3)C2=O)cc1 (centres unmarked) [Example 4, 4-[1-(4-Fluoro-phenyl)-2-oxo-pyrrolidin-3-ylamino]-N-hydroxy-benzamide] | 3890 | 890 | 0.43 | 0.31 | 0.48
O=C(NO)c1ccc(NC2CCN(c3ccccc3Cl)C2=O)cc1 (centres unmarked) [Example 5, 4-[1-(2-Chloro-phenyl)-2-oxo-pyrrolidin-3-ylamino]-N-hydroxy-benzamide] | 6670 | 370 | −0.01 | 0.06 | 0.08
O=C(NO)c1ccc(NC2CCN(c3cccc(Cl)c3)C2=O)cc1 (centres unmarked) [Example 6, 4-[1-(3-Chloro-phenyl)-2-oxo-pyrrolidin-3-ylamino]-N-hydroxy-benzamide] | 2820 | 720 | 0.03 | 0.15 | 0.15
COc1cccc(N2CCC(Nc3ccc(C(=O)NO)cc3)C2=O)c1 (centres unmarked) [Example 8, N-Hydroxy-4-[1-(3-methoxy-phenyl)-2-oxo-pyrrolidin-3-ylamino]-benzamide] | 4120 | 590 | 0.09 | 0.15 | 0.29
CC(C)Oc1ccc(N2CCC(Nc3ccc(C(=O)NO)cc3)C2=O)cc1 (centres unmarked) [Example 10, N-Hydroxy-4-[1-(4-isopropoxy-phenyl)-2-oxo-pyrrolidin-3-ylamino]-benzamide] | 2150 | 1800 | 0.07 | 0.05 | 0.05
O=C(NO)c1ccc(NC2CCN(c3cccc(C(F)(F)F)c3)C2=O)cc1 (centres unmarked) [Example 11, N-Hydroxy-4-[2-oxo-1-(3-trifluoromethyl-phenyl)-pyrrolidin-3-ylamino]-benzamide] | 8310 | 2230 | 0.39 | 0.08 | 0.04
CC(C)c1cccc(N2CCC(Nc3ccc(C(=O)NO)cc3)C2=O)c1 (centres unmarked) [Example 13, N-Hydroxy-4-[1-(3-isopropyl-phenyl)-2-oxo-pyrrolidin-3-ylamino]-benzamide] | 1530 | 740 | 0.29 | 0.19 | 0.09
CS(=O)(=O)c1ccc(N2CCC(Nc3ccc(C(=O)NO)cc3)C2=O)cc1 (centres unmarked) [Example 17, N-Hydroxy-4-[1-(4-methanesulfonyl-phenyl)-2-oxo-pyrrolidin-3-ylamino]-benzamide] | 11900 | 1190 | 0.00 | 0.02 | 0.02
N#Cc1ccc(N2CCC(Nc3ccc(C(=O)NO)cc3)C2=O)cc1 (centres unmarked) [Example 19, 4-[1-(4-Cyano-phenyl)-2-oxo-pyrrolidin-3-ylamino]-N-hydroxy-benzamide] | 3140 | 1050 | 0.46 | 0.00 | −0.03
O=C(NO)c1ccc(NC2CCN(c3ccc(F)c(Cl)c3)C2=O)cc1 (centres unmarked) [Example 20, 4-[1-(3-Chloro-4-fluoro-phenyl)-2-oxo-pyrrolidin-3-ylamino]-N-hydroxy-benzamide] | 960 | 1210 | 0.37 | 0.10 | 0.12

Continued by falling EC50 (HDAC6), values first:

EC50 (HDAC6) [nM] | IC50 (recombinant human HDAC8) [nM] | SMILES | p21 RP3 [1] | p21 RP10 [1] | p21 RP30 [1]
4310 | 1620 | N#Cc1cccc(N2CCC(Nc3ccc(C(=O)NO)cc3)C2=O)c1 (centres unmarked) [Example 18, 4-[1-(3-Cyano-phenyl)-2-oxo-pyrrolidin-3-ylamino]-N-hydroxy-benzamide] | 0.61 | 0.02 | −0.01
4020 | 840 | O=C(NO)c1ccc(NC2CCN(c3ccccc3F)C2=O)cc1 (centres unmarked) [Example 2, 4-[1-(2-Fluoro-phenyl)-2-oxo-pyrrolidin-3-ylamino]-N-hydroxy-benzamide] | 0.33 | 0.26 | 0.46
2610 | 3180 | CC(C)c1ccc(N2CCC(Nc3ccc(C(=O)NO)cc3)C2=O)cc1 (centres unmarked) [Example 14, N-Hydroxy-4-[1-(4-isopropyl-phenyl)-2-oxo-pyrrolidin-3-ylamino]-benzamide] | 0.13 | 0.07 | 0.06
1730 | 1300 | CC(C)Oc1cccc(N2CCC(Nc3ccc(C(=O)NO)cc3)C2=O)c1 (centres unmarked) [Example 9, N-Hydroxy-4-[1-(3-isopropoxy-phenyl)-2-oxo-pyrrolidin-3-ylamino]-benzamide] | 0.24 | 0.13 | 0.23
1560 | 1090 | O=C(NO)c1ccc(NC2CCN(c3cccc(F)c3)C2=O)cc1 (centres unmarked) [Example 3, 4-[1-(3-Fluoro-phenyl)-2-oxo-pyrrolidin-3-ylamino]-N-hydroxy-benzamide] | 0.18 | 0.06 | 0.08
1060 | 1870 | CC(C)(C)c1ccc(N2CCC(Nc3ccc(C(=O)NO)cc3)C2=O)cc1 (centres unmarked) [Example 16, 4-[1-(4-tert-Butyl-phenyl)-2-oxo-pyrrolidin-3-ylamino]-N-hydroxy-benzamide] | 0.17 | 0.12 | −0.03
